Data: patent publication US9364482B2, “Substituted benzofuran compounds and methods of use thereof for the treatment of viral diseases” (priority 2013, dated 2016)
Like-named read-outs stand apart in the source and are kept apart here.

Legend:
HCV replicon genotype 1a = assay: microbe, parasite or virus in culture; type: cell-based, hepatitis C virus (HCV)
HCV replicon genotype 1b = assay: microbe, parasite or virus in culture; type: cell-based, hepatitis C virus (HCV)
[1] = Hepatitis C virus, 96 h, read-out: 1a IC50 (nM)
[2] = Hepatitis C virus, 96 h, read-out: 1b IC50 (nM)

| Structure (SMILES) | IC50 (HCV replicon genotype 1a; [1]) | IC50 (HCV replicon genotype 1b; [2]) | IC50 (HCV replicon genotype 1a; read-out: 1a IC50) | IC50 (HCV replicon genotype 1b; read-out: 1b IC50) |
| --- | --- | --- | --- | --- |
| CNC(=O)c1c(-c2ccc(F)cc2)oc2cc(N(C)S(C)(=O)=O)c(-c3ccc4nc(C)n(Cc5ccc(F)cc5OC)c(=O)c4n3)cc12 [Compound 63, 5-(3-(4-fluoro-2-methoxybenzyl)-2-methyl-4-oxo-3,4-dihydropyrido[3,2-d]pyrimidin-6-yl)-2-(4-fluorophenyl)-N-methyl-6-(N-methylmethylsulfonamido)benzofuran-3-carboxamide] | 23.7 nM | 9 nM |  |  |
| CNC(=O)c1c(-c2ccc(F)cc2)oc2cc(N(C)S(C)(=O)=O)c(-c3cc4c(=O)n(Cc5ccc(F)cc5)nnc4cc3C)cc12 [Compound 72, 5-[3-(4-fluorobenzyl)-7-methyl-4-oxo-3,4-dihydro-1,2,3-benzotriazin-6-yl]-2-(4-fluorophenyl)-N-methyl-6-[methyl(methylsulfonyl)amino]-1-benzofuran-3-carboxamide] | 8.62 nM | 6.47 nM |  |  |
| CNC(=O)c1c(-c2ccc(F)cc2)oc2cc(N(C)S(C)(=O)=O)c(-c3ccc4c(n3)C(=O)N(c3ccc(F)cc3)CO4)cc12 [Compound 2] | 24.8 nM | 3.34 nM |  |  |
| CNC(=O)c1c(-c2ccc(F)cc2)oc2cc(N(C)S(C)(=O)=O)c(-c3ccc4nc(C)n([C@@H](COC)c5ccc(F)cc5)c(=O)c4n3)cc12 [Compound 65, (R)-2-(4-fluorophenyl)-5-(3-(1-(4-fluorophenyl)-2-methoxyethyl)-2-methyl-4-oxo-3,4-dihydropyrido[3,2-d]pyrimidin-6-yl)-N-methyl-6-(N-methylmethylsulfonamido)benzofuran-3-carboxamide] | 9.28 nM | 2.95 nM |  |  |
| CNC(=O)c1c(-c2ccc(F)cc2)oc2cc(N(C)S(C)(=O)=O)c(-c3ccc4nnn(Cc5ccc(F)cc5OC)c(=O)c4c3)cc12 [Compound 47, 5-[3-(4-fluoro-2-methoxybenzyl)-4-oxo-3,4-dihydro-1,2,3-benzotriazin-6-yl]-2-(4-fluorophenyl)-N-methyl-6-[methyl(methylsulfonyl)amino]-1-benzofuran-3-carboxamide] | 20.2 nM | 20.6 nM |  |  |
| CNC(=O)c1c(-c2ccc(F)cc2)oc2cc(N(C)S(C)(=O)=O)c(-c3ccc4c(n3)C(=O)N(Cc3ccc(F)cc3)CC4)cc12 [Compound 36, 5-(7-(4-fluorobenzyl)-8-oxo-5,6,7,8-tetrahydro-1,7-naphthyridin-2-yl)-2-(4-fluorophenyl)-N-methyl-6-(N-methylmethylsulfonamido)benzofuran-3-carboxamide] | 1.08 nM | 0.527 nM |  |  |
| CNC(=O)c1c(-c2ccc(F)cc2)oc2cc(N(C)S(C)(=O)=O)c(-c3cnc4ncn([C@H](C)c5ccc(F)cc5)c(=O)c4c3)cc12 [Compound 25] | 16.3 nM | 11.9 nM |  |  |
| CNC(=O)c1c(-c2ccc(F)cc2)oc2cc(N(C)S(C)(=O)=O)c(-c3ccc4c(n3)C(=O)N(Cc3cccc(F)c3)CO4)cc12 [Compound 7] | 1.48 nM | 1.06 nM |  |  |
| CNC(=O)c1c(-c2ccc(F)cc2)oc2cc(N(C)S(C)(=O)=O)c(-c3cnc4ncn(-c5ccc(F)cc5)c(=O)c4c3)cc12 [Compound 22] | 16.2 nM | 4.12 nM |  |  |
| CNC(=O)c1c(-c2ccc(F)cc2)oc2cc(N(C)S(C)(=O)=O)c(-c3cnc4c(c3)C(=O)NC(C3CC3)N4)cc12 (centres unmarked) [Compound 16] | 128 nM | 39.2 nM |  |  |
| CNC(=O)c1c(-c2ccc(F)cc2)oc2cc(N(C)S(C)(=O)=O)c(-c3ccc4nc(COC)n(Cc5ccc(F)cc5)c(=O)c4c3)cc12 [Compound 53, 5-(3-(4-fluorobenzyl)-2-(methoxymethyl)-4-oxo-3,4-dihydroquinazolin-6-yl)-2-(4-fluorophenyl)-N-methyl-6-(N-methylmethylsulfonamido)benzofuran-3-carboxamide] | 2.57 nM | 2.45 nM |  |  |
| CNC(=O)c1c(-c2ccc(F)cc2)oc2cc(N(C)S(C)(=O)=O)c(-c3ccc4ncn(Cc5ccccc5)c(=O)c4c3)cc12 [Compound 49, 5-(3-benzyl-4-oxo-3,4-dihydroquinazolin-6-yl)-2-(4-fluorophenyl)-N-methyl-6-(N-methylmethylsulfonamido)benzofuran-3-carboxamide] | 6.25 nM | 10.2 nM |  |  |
| CNC(=O)c1c(-c2ccc(F)cc2)oc2cc(N(C)S(C)(=O)=O)c(-c3ccc4c(n3)C(=O)N([C@@H](C)c3ccc(F)cc3)CO4)cc12 [Compound 31, (S)-2-(4-fluorophenyl)-5-(3-(1-(4-fluorophenyl)ethyl)-4-oxo-3,4-dihydro-2H-pyrido[2,3-e][1,3]oxazin-6-yl)-N-methyl-6-(N-methylmethylsulfonamido)benzofuran-3-carboxamide] |  |  | 41.8 nM | 12.5 nM |
| CNC(=O)c1c(-c2ccc(F)cc2)oc2cc(N(C)S(C)(=O)=O)c(-c3ccc4nnn([C@H](C)c5ccc(F)cc5)c(=O)c4c3)cc12 [Compound 46, 2-(4-fluorophenyl)-5-{3-[(1R)-1-(4-fluorophenyl)ethyl]-4-oxo-3,4-dihydro-1,2,3-benzotriazin-6-yl}-N-methyl-6-[methyl(methylsulfonyl)amino]-1-benzofuran-3-carboxamide] | 7.65 nM | 10.2 nM |  |  |
| CNC(=O)c1c(-c2ccc(F)cc2)oc2cc(N(C)S(C)(=O)=O)c(-c3ccc4nnn([C@@H](COC)c5ccc(F)cc5)c(=O)c4c3)cc12 [Compound 41, 2-(4-fluorophenyl)-5-{3-[(1R)-1-(4-fluorophenyl)-2-methoxyethyl]-4-oxo-3,4-dihydro-1,2,3-benzotriazin-6-yl}-N-methyl-6-[methyl(methylsulfonyl)amino]-1-benzofuran-3-carboxamide] | 18.1 nM | 16.2 nM |  |  |
| CNC(=O)c1c(-c2ccc(F)cc2)oc2cc(N(C)S(C)(=O)=O)c(-c3ccc4nc(C)n(Cc5ccc(F)cc5)c(=O)c4c3)cc12 [Compound 55, 5-[3-(4-fluorobenzyl)-2-methyl-4-oxo-3,4-dihydroquinazolin-6-yl]-2-(4-fluorophenyl)-N-methyl-6-[methyl(methylsulfonyl)amino]-1-benzofuran-3-carboxamide] | 1.93 nM | 2.42 nM |  |  |
| CNC(=O)c1c(-c2ccc(F)cc2)oc2cc(N(C)S(C)(=O)=O)c(-c3ccc4nc(C)n(Cc5ccc(F)cc5)c(=O)c4n3)cc12 [Compound 68, 5-(3-(4-fluorobenzyl)-2-methyl-4-oxo-3,4-dihydropyrido[3,2-d]pyrimidin-6-yl)-2-(4-fluorophenyl)-N-methyl-6-(N-methylmethylsulfonamido)benzofuran-3-carboxamide] | 2 nM | 2.24 nM |  |  |
| CNC(=O)c1c(-c2ccc(F)cc2)oc2cc(N(C)S(C)(=O)=O)c(-c3ccc4c(n3)C(=O)N(Cc3ccc(F)cn3)CO4)cc12 [Compound 11, 2-(4-fluorophenyl)-5-(3-((5-fluoropyridin-2-yl)methyl)-4-oxo-3,4-dihydro-2H-pyrido[2,3-e][1,3]oxazin-6-yl)-N-methyl-6-(N-methylmethylsulfonamido)benzofuran-3-carboxamide] | 15.3 nM | 7.68 nM |  |  |
| CNC(=O)c1c(-c2ccc(F)cc2)oc2cc(N(C)S(C)(=O)=O)c(-c3ccc4ncn(Cc5ccc(F)cc5OC)c(=O)c4c3)cc12 [Compound 51, 5-[3-(4-fluoro-2-methoxybenzyl)-4-oxo-3,4-dihydroquinazolin-6-yl]-2-(4-fluorophenyl)-N-methyl-6-[methyl(methylsulfonyl)amino]-1-benzofuran-3-carboxamide] | 8.98 nM | 2.35 nM |  |  |
